One assay relates to HFD-fed mice. Nature of the assay: Topical MC903 in HFD-fed WT C57BL/6 mice (weight gain, eWAT, GTT, HOMA-IR, liver histology). In kind it is in vivo, mouse. The procedure:
WT C57BL/6 mice were fed a normal chow (NC) or 40% high fat diet (HFD) for 12 weeks. The mice were topically treated with either vehicle (EtOH) or MC903 (2 nmol/ear) on both ears Monday, Wednesday, and Friday on odd weeks. (FIG. 1A) Mice were weighed weekly and % change from baseline is plotted as mean±SEM. (FIG. 1B) The mice were euthanized on Week 12 and the epididymal fat pads were weighed. (FIG. 1C, FIG. 1D) Glucose tolerance test was performed on Week 12 by injection of glucose and subsequent measurements of blood glucose levels. HOMA-IR analysis was performed after an overnight fast at Week 12. *, **, and *** indicate statistical significance of p<0.05, p<0.01, and p<0.001, respectively by Student t-test or ANOVA.
WT C57BL/6 mice were fed a normal chow (NC) or 40% high fat diet (HFD) for 12 weeks. The mice were topically treated with either vehicle (EtOH) or MC903 (2 nmol/ear) on both ears Monday, Wednesday, and Friday on odd weeks. Shown are representative histological images of the liver on Week 12.
Wildtype C57BL/6 mice were fed a normal chow (NC) or 40% high fat diet (HFD) for 12 weeks. The mice were topically treated with either vehicle (EtOH) or MC903 (2 nmol/ear) on both ears Monday, Wednesday, and Friday on odd weeks. (A) Mice were weighed weekly and % change from baseline is plotted as mean±SEM. (B) The mice were euthanized on Week 12 and the epididymal fat pads were weighed. (C, D) Glucose tolerance test (GTT) was performed on Week 12 by injection of glucose and subsequent measurements of blood glucose levels. Homeostatic model assessment-insulin resistance (HOMA-IR) analysis was performed after an overnight fast at Week 12. *, **, and *** indicate statistical significance of p<0.05, p<0.01, and p<0.001, respectively by Student t-test or ANOVA.
C57BL/6 mice were fed a normal chow (NC) or 40% high fat diet (HFD) for 12 weeks. The mice were topically treated with either vehicle (EtOH) or MC903 (2 nmol/ear) on both ears Monday, Wednesday, and Friday on odd weeks. Shown are representative histological images of the liver on Week 12.

The subject of another assay is human individual. Nature of the assay: Topical MC903 application to arm or leg of human individuals (remote effects on sebum, dry skin, scalp hair, dry eye). The class given is in vivo. The procedure: MC903 was applied topically to the right arm of an individual daily. Sebum measurements were obtained by cleaning the forehead with ethanol wipe, resting for 15 minutes, and placing sebutape on the forehead for 2 minutes. Black dots on the blue and white background of the tape indicates the presence of sebum at each day post treatment.
MC903 was applied topically to the right arm of an individual daily. Photographs of the right hand before and after 3 or 5 days post treatment is shown. The individual was treated for 14 days total with no need of hand cream at least 9 weeks even after treatment was discontinued. In certain embodiments, secretion of sebum lasts after cessation of treatment.
MC903 was applied topically to the left arm daily of an individual for 14 days (1st treatment). Treatment was stopped for 4 weeks and restarted for an additional 2 weeks (2nd treatment) on the right arm daily. Photographs of the scalp before, 2 weeks after 1st treatment, 11 days after 2nd treatment, and 8 weeks after 2nd treatment are shown.[…].
MC903 was applied topically to the left arm daily of an individual and the right leg another individual for 14 days (1st treatment). The presence of dry eye symptoms was subjectively evaluated in the two individuals before and after treatment. The response is plotted in a bar graph.

The next assay concerns HFD-fed TSLP-R KO mice. Nature of the assay: Topical MC903 in HFD-fed TSLP-R KO mice. In kind it is in vivo, mouse. The settings on record: HFD-fed TSLP-R-deficient mice, topical MC903 2 nmol/ear, 12 weeks. The procedure:
TSLP-R KO mice were fed a normal chow (NC) or 40% high fat diet (HFD) for 12 weeks. The mice were topically treated with either vehicle (EtOH) or MC903 (2 nmol/ear) on both ears Monday, Wednesday, and Friday on odd weeks. Mice were weighed on the indicated time points and plotted as mean±SEM. Glucose tolerance test was performed on Week 12 by injection of glucose and subsequent measurements of blood glucose levels. AUC analysis is performed on the GTT curves. * indicates statistical significance of p<0.05 by Student t-test.
TSLP-R knock out (KO) mice were fed a normal chow (NC) or 40% high fat diet (HFD) for 12 weeks. The mice were topically treated with either vehicle (EtOH) or MC903 (2 nmol/ear) on both ears Monday, Wednesday, and Friday on odd weeks. Mice were weighed on the indicated time points and plotted as mean±SEM. Glucose tolerance test (GTT) was performed on Week 12 by injection of glucose and subsequent measurements of blood glucose levels. AUC analysis is performed on the GTT curves. * indicates statistical significance of p<0.05 by Student t-test.

The mark [1] stands for this setting: HFD-fed mice, Week 12, vs vehicle.

Entries after “also recorded” stand apart in the source; their conditions may differ.

The record followed here is US20220233641A1, “Methods and Compositions for Treating Obesity and/or Skin Disorders” (THE TRUSTEES OF THE UNIVERSITY OF PENNSYLVANIA, priority 2019, published 2022).

Regarding `C=C1/C(=C\C=C2/CCC[C@]3(C)[C@@H]([C@H](C)/C=C/[C@@H](O)C4CC4)CC[C@@H]23)C[C@@H](O)C[C@@H]1O` [MC903, 26,27-cyclo-22-ene-1α,24S-dihydroxyvitamin D3], the weight gain result in the assay with HFD-fed mice (HFD-fed WT C57BL/6 mice, topical MC903 2 nmol/ear, 12 weeks, vs vehicle (EtOH)) was “significantly reduced weight gain; also recorded: significantly less weight gain; also recorded: prevention weight gain”. In the assay with HFD-fed mice (setting [1]), the “epididymal white adipose tissue (eWAT) weight” value was “significantly decreased”; the “fat deposition in the liver (histology)” value was “markedly reduced; also recorded: appeared very similar to the tissue of mice fed with normal chow; also recorded: prevention of HFD-induced hepatosteatosis”; the “metabolic parameters (GTT and HOMA-IR)” value was “improved metabolic parameters; also recorded: improvement in metabolic parameters”. For the same compound, the “time with no need of hand cream after treatment was discontinued” value in the assay with human individual (human individual treated for 14 days total) is given as “at least 9 weeks”. In the assay on human individual (human individual, 2 cycles of 2-week topical MC903 on the arm), the scalp hair growth entry is on record as “substantial recovery of hair growth; also recorded: remotely promotes scalp hair growth”. Further, the “sebum on the forehead (sebutape)” value in the assay on human individual (one human individual, MC903 topically on the arm daily) is given as “increasing amounts of sebum on the forehead; also recorded: remotely increases sebum secretion”. Besides, the “eczematous dry skin of a hand” value with human individual (one human individual, MC903 topically on the right arm daily) is “marked improvement; also recorded: remotely cures dry skin of the hand”. Further, the “dry eye symptoms (subjective)” value with human individual (two human individuals, MC903 on arm or leg daily for 14 days) is “improvement in dry eye symptoms; also recorded: remotely improves dry eye symptoms”. In the assay with HFD-fed TSLP-R KO mice, the “weight gain and metabolic parameters” value was “does not prevent weight gain or improve metabolic parameters”.
